# In patent US20040059104A1, “Nucleotide mimics and their prodrugs” (priority 2002, published 2004):
# Legend:
# Escherichia coli = experiment: Antimicrobial assay, minimal inhibitory concentration; type: cell-based
# Protocol: (§1) To examine the antimicrobial potential of the nucleotide mimics of the present invention an assay was employed that allowed the screening of a large number of compounds simultaneously. The type of bacteria chosen to screen the compounds are organisms associated with human disease and represent major groups of bacteria based on their structure and metabolism. Bacterial cultures of Escherichia coli and Staphylococcus aureus were incubated overnight at 37° C. in a shaker incubator. A lawn of each overnight bacterial culture was made by plating […] of bacteria on agar plates containing Nutrient Broth. Immediately after plating, sterile blank paper discs were put on top of the lawn and a compound was applied to each blank paper disc. Plates were then incubated overnight and examined for the inhibition of bacterial growth the following day. […] The plates were incubated overnight at 37° C. and then examined spectrophotometrically at 600 nm to determine the minimum concentration of each compound that inhibited replication of bacteria as determined by no increase in absorbance at 600 nm.
# Staphylococcus aureus = experiment: as above; type: cell-based
# Protocol: as §1
# in vitro [1] = settings: human
# Protocol: The stability of compounds in cell extracts was examined as follows:
# Cell lysis buffer was added to cell pellets and the cells frozen and thawed 3× using dry ice. The lysis buffer (LB) was composed of the following: 50 mM Tris-HCl, pH 7.4 (100 μl/ml 10× stock), 20% glycerol (200 μl/ml), and 0.5% Triton X-100 (5 μl/ml). 100 μl of LB was added to each microfuge tube containing 10^7 frozen CEM cells. After the cells were lysed the extracts were centrifuged at high speed in a microcentrifuge for 5 minutes and the clarified cell extract transferred to a new tube. The cell stability reaction mixtures contained concentrations of buffer, magnesium, nucleotide, and cell extract as shown below:
# The reaction mixtures were incubated at 37° C. At each time point, including at time zero, 12.5 μl aliquots were added to 40 μl ice-cold methanol. […] The samples were incubated in methanol for at least 60 minutes and typically overnight at −20° C. prior to further processing. The cell extracts were centrifuged at high speed in refrigerated microcentrifuge for 20 minutes and the supernatant transferred to a new tube. The extract was then dried under vacuum in a LabConco Centrivap Concentrator. The samples were then resuspended in 40 or 50 μl dH2O, filtered to remove any particulate, and analyzed by reverse phase HPLC.
# The reverse phase HPLC columns used for the analysis were either a Phenomenex C18 Aqua column (2×100 mm) or the Phenomenex C18 Aqua column (3×150 mm) used with the appropriate guard column. The HPLC flow rate was either 0.2 ml/min (for the 2×100 mm column) or 0.5 ml/min (for the 3×150 mm column) with the following buffer system: 5 mM tetrabutylammonium acetate, 50 mM ammonium phosphate, and an acetonitrile gradient running from 5% up to as high as 60%. The amount of remaining parent compound at each time point was used to determine the half-life of the compound. […] Unmodified nucleoside triphosphates were used as positive controls.
# CEM-SS cells = experiment: Compound toxicity in CEM-SS cells (MTS staining); type: cell-based; settings: read-out: CEM-SS TC50
# Protocol: (§2) ollowing paper: Structure-Activity and Cross-Resistance unodeficiency Virus Type 1-Specific ckheit, Jr. et al., Antimicrobial Agents and s were evaluated in CEM-SS cell cultures V-1RF at an MOI of approximately 0.01. At he soluble tetrazolium-based dye MTS viability and quantify compound toxicity of metabolically active cells to yield a soluble analysis of cell viability and compound
# (§3) At assay termination, the assay plates were stained with the soluble tetrazolium-based dye MTS (CellTiter Reagent Promega) to determine cell viability and quantify compound toxicity. MTS is metabolized by the mitochondrial enzymes of metabolically active cells to yield a soluble formazan product, allowing the rapid quantitative analysis of cell viability and compound cytotoxicity. […] At termination of the assay, 20 μL of MTS reagent was added per well. The microtiter plates were then incubated 4-6 hrs at 37° C. for the HIV cytoprotection assay; the incubation intervals were chosen based on empirically determined times for optimal dye reduction. Adhesive plate sealers were used in place of the lids, the sealed plate was inverted several times to mix the soluble formazan product and the plate was read spectrophotometrically at 490 nm with a Molecular Devices Vmax plate reader.
# HIV-1RF = experiment: Anti-HIV-1 cytoprotection assay in CEM-SS cells; type: cell-based; settings: CEM-SS cells infected with HIV-1RF, MOI approximately 0.01, 6 days, MTS; read-out: CEM-SS IC50 (Anti-HIV Screening)
# Protocol: as §2
# Efficacy Evaluation in CEM-SS Cells Anti-HIV-1 Cytoprotection Assay
# Cell Preparation—CEM-SS cells were passaged in T-75 flasks prior to use in the antiviral assay. On the day preceding the assay, the cells were split 1:2 to assure they were in an exponential growth phase at the time of infection. Total cell and viability quantification was performed using a hemacytometer and trypan blue exclusion. Cell viability was greater than 95% for the cells to be utilized in the assay. The cells were resuspended at 5×10^4 cells/ml in tissue culture medium and added to the drug-containing microtiter plates in a volume of 50 μl.
# Virus Preparation—The virus used for these tests was the lymphocytropic virus strain HIV-1RF. This virus was obtained from the NIH AIDS Research and Reference Reagent Program and was grown in CEM-SS cells for the production of stock virus pools. For each assay, a pre-titered aliquot of virus was removed from the freezer (−80° C.) and allowed to thaw slowly to room temperature in a biological safety cabinet. The virus was resuspended and diluted into tissue culture medium such that the amount of virus added to each well in a volume of 50 μl was the amount determined to give between 85 to 95% cell killing at 6 days post-infection.
# as §3
# CEM cells = experiment: Cell uptake procedure (intracellular nucleotide levels by HPLC); type: cell-based, Human; settings: 24 hour incubation, limit of detection about 5 pmol/10^6 cells
# Protocol: CEM cells were resuspended in RPMI at 1×10^7 cells/mL. The appropriate amount of each compound was added to well and then 0.5 ml of the cells was aliquoted into the appropriate number of wells of a 24-well plate and incubated the cells at 37° C. Cells were harvested after 24 hours of incubation. To harvest cells they were transferred to a microfuge tube and spun for one minute at high speed. The samples were washed in PBS containing 1 mg/ml BSA and re-centrifuged. The PBS was then aspirated and 200 μL of ice-cold 60% methanol was added to extract the nucleotides. The extracts were incubated overnight at −20° C. The next day the samples were spun at high speed in a microfuge for 20 minutes and the supernatant transferred to clean tubes and dried in the speed vac. After drying the samples were resuspended in 50 μl, filtered, and the samples then directly injected onto the HPLC. The nucleotides were analyzed using reverse phase HPLC with ion-pairing agents for separation of the nucleotides. The procedure was adapted from the following paper: Furman, et al., Proc. Natl. Acad. Sci. USA 1986, 83, 8333-8337.
# The limit of detection was estimated to be 5 pmol/10^6 cells.
# in vitro [2] = settings: bovine, serum
# Protocol: Typically the total volume used for the experiment was 500 μl. The final concentrations of the reaction components were as follows:
# The reacton mixtures were made up and incubated at 37° C. At appropriate times aliquots of 25 μl were removed and added to 65 μl ice-cold methanol. These solutions were our at −20° C. and typically overnight. After incubation samples were inutes at high speed in a microcentrifuge. The supernatant was nd the extract was dried under vacuum in a LabConco Centrivap Concentrator. The dried extracts were resuspended in dH2O and filtered to remove particulate before analysis on reverse phase HPLC.
# The reverse phase HPLC columns used for the analysis were either a Phenomenex C18 Aqua column (2×100 mm) or the Phenomenex C18 Aqua column (3×150 mm) used with the appropriate guard column. The HPLC was run at 0.2 ml/min (for the 2×100 mm column) or at 0.5 ml/min (for the 3×150 mm column) with the following buffer system: 5 mM tetrabutylammonium acetate, 50 mM ammonium phosphate, and an acetonitrile gradient running from 5% up to as high as 60%. The amount of remaining parent compound at each time point was used to determine the half-life of the compound. […] Unmodified nucleoside triphosphates were used as positive controls.
# [3] = molecular target: purified bovine brain tubulin; experiment: Assay for inhibition of microtubule (tubulin) polymerization; type: biochemical; settings: 50 μM GTP, 37° C.; read-out: Ki, Inhibition of Tubulin Polymerization by Nucleotide Mimics
# Protocol: The assays employed to measure the polymerization and stability of tubulin microtubule protein are described below. The effectiveness of the compounds of the present invention as modulators of tubulin microtubule protein dynamics was measured in the following assays.
# This assay was used to measure the ability of the nucleotide mimics of the present invention to inhibit the polymerization of tubulin subunits and subsequent assembly of microtubule protein. This assay is a modification of a published procedure (Xu et al., “Interaction of Tubulin with Guanosine 5′-O-(1-Thiotriphosphate) Diastereoisomers: Specificity of the α-Phosphate Binding Region”, Biochemistry 1994, 33, 11884-90).
# The compounds were tested at various concentrations up to 500 μM final concentration. Polymerization assays were performed in 96-well microplates (Costar), in assay buffer containing GTP and tubulin. The nucleotide mimics of the present invention were diluted in buffer and pipetted into the plate wells. Samples were kept on ice until the reactions were initiated by moving the plates into a 37° C. incubator. The polymerization reaction was allowed to proceed at 37° C. for 30 minutes, monitored at 340 nm using a microplate spectrophotometer with a temperature-controlled incubator (Molecular Devices, Sunnyvale, Calif.). Initial velocity data (mA min^−1) was collected and fit to the equations below.
# The percentage of inhibition was calculated according to the following equation:
# % Inhibition=[1−(mA min^−1 in test reaction−mA min^−1 in blank)/(mA min^−1 in control reaction−mA min^−1 in blank)]×100.
# Each inhibitor was titrated over an appropriate range of concentrations, and inhibition constants were determined using the following equations:
# v=Vm[S]/(Km(1+[I]/Ki)+[S])
# [4] = molecular target: HIV reverse transcriptase (RT) (Human immunodeficiency virus type 1 group M subtype B, UniProt P04585); settings: assays using homopolymer templates; background statement; cited from earlier work
# [5] = overnight at 37° C., tested 0-200 μg/ml, NA = Not active
# [6] = value in brackets beside the μg/ml value
# [7] = incubation concentration 100 μM
Compound,E. coli MIC (Escherichia coli; [5]) [µg/mL],E. coli MIC (Escherichia coli; [6]),"Half-Life, Cell Extract Half-Lives of AZT 5'-α-P-borano-β,γ-(difluoromethylene) triphosphate Prodrugs (in vitro [1]) [h]",CC50 (CEM-SS cells) [µM],IC50 (HIV-1RF) [µM],Ki [3] [µM],other results
"3′-Azido-3′-deoxythymidine 5′-α-P-borano-β,γ-difluoromethylene-γ-O-palmityltriphosphate [Compound 41]",25 to 50,(33-66) uM,>48,12,1.41,–,S. aureus MIC (Staphylococcus aureus; [5]): 5 to 10 µg/mL; S. aureus MIC (Staphylococcus aureus; [6]): (6.5-13) μM
"3′-Azido-3′-deoxythymidine 5′-α-P-borano-γ-O-(S-pivaloyl-2-thioethyl)-β,γ-(difluoromethylene)triphosphate [Compound 70]",6,(8.8) uM,15,> 200,0.95,–,"Intracellular levels of 27 (CEM cells; incubation concentration 25 μM): 10.5 pmol/10^6 cells; Intracellular levels of 27 (CEM cells; incubation concentration 50 μM): 15.6 pmol/10^6 cells; Intracellular levels of 27 (CEM cells; [7]): 19.7 pmol/10^6 cells; Half-Life, Serum Half-Lives of AZT Triphosphate Mimic Prodrugs (in vitro [2]): >48 h"
Nc1ccn([C@@H]2O[C@H](COP(=O)(O)OP(=O)(O)O)[C@@H](O)C2=CF)c(=O)n1 [2′-Deoxy-2′-fluoromethylenecytidine 5′-diphosphate],–,–,–,–,–,19.4,–
BP(=O)(OC[C@@H]1O[C@H](n2cc(C)c(=O)[nH]c2=O)C[C@H]1N=[N+]=[N-])OP(=O)(O)OP(=O)(O)O (stereo partly drawn) [AZT 5′-α-P-boranotriphosphate],–,–,–,–,–,–,"Ki values, inhibition of HIV reverse transcriptase (RT) [4]: low nM range"
"BP(=O)(OC[C@H]1O[C@@H](n2cc(C)c(=O)[nH]c2=O)C[C@H]1N=[N+]=[N-])OP(=O)(O)C(F)(F)P(=O)(O)OCOC(=O)C(C)(C)C (stereo partly drawn) [Compound 69, 3′-Azido-3′-deoxythymidine 5′-α-P-borano-γ-O-(pivaloyloxymethyl)-β,γ-(difluoromethylene)triphosphate]",0.75,(1) uM,8,45.9,1.13,–,"Intracellular levels of 27 (CEM cells; incubation concentration 25 μM): 33.1 pmol/10^6 cells; Intracellular levels of 27 (CEM cells; incubation concentration 50 μM): 51.1 pmol/10^6 cells; Intracellular levels of 27 (CEM cells; [7]): 70.8 pmol/10^6 cells; Half-Life, Serum Half-Lives of AZT Triphosphate Mimic Prodrugs (in vitro [2]): >48 h"
"Nc1ccn([C@@H]2O[C@H](COP(=O)(O)CCP(=O)(O)O)[C@@H](O)C2(F)F)c(=O)n1 [Compound 81, 2′-Deoxy-2′,2′-difluorocytidine 5′-ethylenediphosphonate]",–,–,–,–,–,15.7,–
Nc1nc2c(ncn2[C@@H]2O[C@H](COP(=O)(O)OP(=O)(O)O)[C@@H](O)[C@H]2O)c(=O)[nH]1 [Guanosine 5′-diphosphate],–,–,–,–,–,15.3,–
Nc1nc2c(ncn2[C@@H]2O[C@H](COP(=O)(O)NP(=O)(O)O)[C@@H](O)[C@H]2O)c(=O)[nH]1 [Guanosine 5′-imidodiphosphate],–,–,–,–,–,5.7,–
D4T 5′-α-P-boranotriphosphate,–,–,–,–,–,–,"Ki values, inhibition of HIV reverse transcriptase (RT) [4]: low nM range"
